Measurements as given in paper PMC8123576 (International Journal of Molecular Sciences, 2021).
Like-named read-outs stand apart in the source and are kept apart here.

Legend:
U937 cells = experiment: Alkaline Comet Assay; type: cell-based, human; conditions: 24 h treatment, 25-100 µM
Procedure: Our standard protocol for the Alkaline Comet Assay (pH > 13) was previously described in great detail. The DNA-damaging effects of non-cytotoxic molecules were evaluated on U937 cells using 25 μM as the lowest concentration and 100 µM as the highest for 24 h treatment. After exposure, cell viability was checked using the trypan blue exclusion method: a viability of at least 70% compared to the negative control (DMSO) was used as a cut-off for further evaluating the level of DNA damage. After electrophoresis (DNA unwinding: 20 min; electrophoresis: 20 min, 0.78 V cm^−1, 300 mA), nucleoids stained with ethidium bromide (75 µL, 10 µg/mL) were examined with a Leica DMLS fluorescence microscope (excitation filter BP 515–560 nm, barrier filter LP 580 nm), using the software Comet Assay IV (Perceptive Instruments Ltd., Suffolk, UK). Alkaline Comet assay results are expressed as tail intensity percentage that measures the percentage of total cellular DNA found in the tail of each comet.

S. typhimurium TA100 = conditions: for TA100 + S9 revertants/plate: NC 106.5 ± 11.9; for TA100 revertants/plate: NC 95.8 ± 5.5

CC(=NNC(N)=S)c1cccs1 [2-actpTS, 2-acetylthiophenethiosemicarbazone]
DNA damage in Alkaline Comet Assay (U937 cells): did not induce significant DNA damage
TA100 + S9 MR (mutagenicity ratio) (S. typhimurium TA100; +S9, 0.1 µM/plate): 0.9
TA100 + S9 revertants/plate (S. typhimurium TA100; +S9, 0.1 µM/plate): 98.0 ± 24.0 revertants/plate
TA100 + S9 MR (mutagenicity ratio) (S. typhimurium TA100; +S9, 1.0 µM/plate): 1.0
TA100 + S9 revertants/plate (S. typhimurium TA100; +S9, 1.0 µM/plate): 104.0 ± 15.6 revertants/plate
TA100 + S9 MR (mutagenicity ratio) (S. typhimurium TA100; +S9, 10.0 µM/plate): 1.0
TA100 + S9 revertants/plate (S. typhimurium TA100; +S9, 10.0 µM/plate): 107.5 ± 0.7 revertants/plate
TA100 + S9 MR (mutagenicity ratio) (S. typhimurium TA100; +S9, 50.0 µM/plate): 0.9
TA100 + S9 revertants/plate (S. typhimurium TA100; +S9, 50.0 µM/plate): 90.5 ± 13.4 revertants/plate
TA100 + S9 MR (mutagenicity ratio) (S. typhimurium TA100; +S9, 100.0 µM/plate): 0.8
TA100 + S9 revertants/plate (S. typhimurium TA100; +S9, 100.0 µM/plate): 88.0 ± 8.5 revertants/plate
TA100 MR (mutagenicity ratio) (S. typhimurium TA100; -S9, 0.1 µM/plate): 1.0
TA100 revertants/plate (S. typhimurium TA100; -S9, 0.1 µM/plate): 92.0 ± 14.1 revertants/plate
TA100 MR (mutagenicity ratio) (S. typhimurium TA100; -S9, 1.0 µM/plate): 1.1
TA100 revertants/plate (S. typhimurium TA100; -S9, 1.0 µM/plate): 101.5 ± 4.9 revertants/plate
TA100 MR (mutagenicity ratio) (S. typhimurium TA100; -S9, 10.0 µM/plate): 1.1
TA100 revertants/plate (S. typhimurium TA100; -S9, 10.0 µM/plate): 104.5 ± 9.2 revertants/plate
TA100 MR (mutagenicity ratio) (S. typhimurium TA100; -S9, 50.0 µM/plate): 0.9
TA100 revertants/plate (S. typhimurium TA100; -S9, 50.0 µM/plate): 87.5 ± 7.8 revertants/plate
TA100 MR (mutagenicity ratio) (S. typhimurium TA100; -S9, 100.0 µM/plate): 1.0
TA100 revertants/plate (S. typhimurium TA100; -S9, 100.0 µM/plate): 99.5 ± 0.7 revertants/plate
